Reference: paper PMC10708125, “Antidiabetic Activity, Molecular Docking, and ADMET Properties of Compounds Isolated from Bioactive Ethyl Acetate Fraction of Ficus lutea Leaf Extract” (Molecules, 2023)
Where two headings read alike, the source gives them in different places.

Assays:
[1] = molecular target: T1, rat intestinal α-glucosidase (Rattus norvegicus, UniProt P23739); assay: α-Glucosidase inhibition assay; type: biochemical
T1 construct: rat intestinal α-glucosidase solution; from tissue; host or cells: rat intestine
Experimental: The effect of the isolated compounds on the activity of the α-glucosidase enzyme was evaluated by the method of Olaokun et al.. Firstly, a solution of 2.5 mg of compound in 1 mL of 50% dimethyl sulfoxide was made. A compound solution (100 μL) and sucrose (200 μL of a 56 mM solution) in 0.1 M PO4 buffer (pH 7) were incubated at 37 °C for 5 min. Then 200 μL of rat intestinal α-glucosidase solution was added with vigorous shaking before incubation for 20 min. Thereafter, 750 μL of 2 M Tris-HCl buffer (pH 6.9) was added to the mixture. […] The quantity of glucose released was estimated using the glucose oxidase method, with absorbance recorded at 540 nm. […] (1) %Inhibition=100×∆AControl−∆ASample/∆AControl∆AControl=ATest−ABlank∆ASample=ATest−ABlank

C2C12 muscle cells = assay: Glucose utilization in C2C12 muscle cells; type: cell-based; conditions: 250 µg/mL, 1 h, percentage of untreated control cells ± SEM
Experimental: (§1) The potential of compounds to stimulate cells to utilize glucose was estimated using the method adopted by Olaokun et al.. […] The C2C12 cells were incubated for 4 days, while the H-4-11-E cells were incubated for 2 days at 37 °C in a 5% CO2 incubator. Thereafter, the cells were examined and utilized for the glucose uptake assay. […] The treated cells were incubated for 1 h (C2C12) and 3 h (H-4-11-E). The positive control was insulin (Sigma) (1 μM) for C2C12 cells and metformin (Sigma) (1 µM) for H-4-11-E cells. Thereafter, the amount of glucose in the medium was evaluated using the glucose oxidase method, with absorbance recorded at 540 nm. The percentage of glucose utilized was calculated as the percentage change in absorbance in comparison to the untreated cells using Equation (2). (2) %Glucose utilized=100×∆AControl (untreated cells)−∆ASample (treated cells)/∆AControl (untreated cells)

H-4-11-E rat liver cells = assay: Glucose utilization in H-4-11-E liver cells; type: cell-based; conditions: 250 µg/mL, 3 h, percentage of untreated control cells ± SEM
Experimental: as §1

[2] = rat intestinal α-glucosidase, sucrose substrate, mean ± SEM, read-out: IC50, α-glucosidase inhibitory activity (converted)

T1 sequence (P23739 whole entry): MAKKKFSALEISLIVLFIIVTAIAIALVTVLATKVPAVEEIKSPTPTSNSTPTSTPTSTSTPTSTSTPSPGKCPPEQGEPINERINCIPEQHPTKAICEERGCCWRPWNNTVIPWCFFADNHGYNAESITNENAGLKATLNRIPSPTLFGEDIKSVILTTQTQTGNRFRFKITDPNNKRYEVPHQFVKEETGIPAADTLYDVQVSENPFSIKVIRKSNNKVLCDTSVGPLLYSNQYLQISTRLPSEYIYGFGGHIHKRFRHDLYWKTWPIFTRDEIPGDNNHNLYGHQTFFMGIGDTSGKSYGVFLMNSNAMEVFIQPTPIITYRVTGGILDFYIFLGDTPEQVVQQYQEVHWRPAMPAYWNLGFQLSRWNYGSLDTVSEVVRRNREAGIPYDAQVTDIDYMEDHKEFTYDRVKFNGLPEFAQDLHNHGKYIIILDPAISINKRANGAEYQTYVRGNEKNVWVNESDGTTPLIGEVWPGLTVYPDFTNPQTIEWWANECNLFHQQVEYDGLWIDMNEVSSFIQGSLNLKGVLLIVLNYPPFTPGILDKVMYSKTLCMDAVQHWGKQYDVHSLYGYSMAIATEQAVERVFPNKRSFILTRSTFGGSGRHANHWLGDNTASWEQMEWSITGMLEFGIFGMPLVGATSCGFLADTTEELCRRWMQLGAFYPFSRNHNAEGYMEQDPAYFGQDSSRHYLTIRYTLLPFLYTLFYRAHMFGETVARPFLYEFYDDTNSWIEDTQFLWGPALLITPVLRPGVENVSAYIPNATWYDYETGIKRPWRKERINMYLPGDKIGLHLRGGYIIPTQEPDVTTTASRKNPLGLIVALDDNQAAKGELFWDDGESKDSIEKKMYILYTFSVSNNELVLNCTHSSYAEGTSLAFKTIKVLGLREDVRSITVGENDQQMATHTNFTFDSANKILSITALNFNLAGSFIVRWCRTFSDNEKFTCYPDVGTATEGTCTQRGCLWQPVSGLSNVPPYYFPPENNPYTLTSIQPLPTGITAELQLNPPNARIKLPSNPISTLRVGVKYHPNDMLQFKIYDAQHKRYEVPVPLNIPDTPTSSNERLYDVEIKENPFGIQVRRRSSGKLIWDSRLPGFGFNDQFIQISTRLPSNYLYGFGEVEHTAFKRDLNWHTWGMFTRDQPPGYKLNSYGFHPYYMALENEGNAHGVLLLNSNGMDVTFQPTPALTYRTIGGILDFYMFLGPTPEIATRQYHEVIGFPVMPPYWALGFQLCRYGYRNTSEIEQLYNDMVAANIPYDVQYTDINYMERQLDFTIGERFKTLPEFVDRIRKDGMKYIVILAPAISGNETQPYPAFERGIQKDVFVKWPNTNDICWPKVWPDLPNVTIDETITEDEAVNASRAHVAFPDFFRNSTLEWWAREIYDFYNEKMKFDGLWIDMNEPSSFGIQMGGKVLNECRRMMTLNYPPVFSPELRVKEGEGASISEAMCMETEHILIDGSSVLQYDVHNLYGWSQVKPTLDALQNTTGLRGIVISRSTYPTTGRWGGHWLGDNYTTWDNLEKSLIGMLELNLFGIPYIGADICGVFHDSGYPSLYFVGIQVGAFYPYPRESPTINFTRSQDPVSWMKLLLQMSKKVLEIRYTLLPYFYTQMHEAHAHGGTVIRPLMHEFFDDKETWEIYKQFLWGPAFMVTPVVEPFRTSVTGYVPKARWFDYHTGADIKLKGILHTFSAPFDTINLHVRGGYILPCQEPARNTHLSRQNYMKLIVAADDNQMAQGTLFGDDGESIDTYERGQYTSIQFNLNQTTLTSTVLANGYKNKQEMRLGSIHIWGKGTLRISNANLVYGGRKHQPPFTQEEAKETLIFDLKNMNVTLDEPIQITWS

Row | SMILES | IC50 [1, 2] [µM] | Glucose utilization in C2C12 muscle cells (C2C12 muscle cells) [%] | Glucose utilization in H-4-11-E liver cells (H-4-11-E rat liver cells) [%] | IC50 [1] [µM]
1 | Oc1ccc(C2Oc3cc(O)cc(O)c3CC2O)cc1 (centres unmarked) [Epiafzelechin, epiafzelechin] | 27.9 | 33.35 ± 1.8 | 46.7 ± 1.2 | 
2 | CC(=O)OC1CCC2(C)C(CCC3(C)C2CC=C2C4C(C)C(C)CCC4(C)CCC23C)C1(C)C (stereo not drawn) [α-Amyrin acetate, α-amyrin acetate] | 716 |  |  | 
3 | CC[C@H](/C=C/[C@@H](C)[C@H]1CC[C@H]2[C@@H]3CC=C4C[C@@H](O)CC[C@]4(C)[C@H]3CC[C@]12C)C(C)C [Stigmasterol, stigmasterol] | 280 |  |  | 
4 | Oc1cc(O)c2c(c1)O[C@H](c1ccc(O)c(O)c1)[C@H](O)C2 [Epicatechin, epicatechin] | 19.7 |  | 32.4 ± 1.5 | 
5 | C=C(C)[C@@H]1CC[C@]2(C)CC[C@]3(C)[C@H](CC[C@@H]4[C@@]5(C)CC[C@H](O)C(C)(C)[C@@H]5CC[C@]43C)[C@@H]12 [Lupeol, lupeol] |  |  |  | > 2340
